Assay results from ChEMBL document CHEMBL5370624 (J Med Chem, 2023).
Active and inactive are the calls of the source. The rule behind the calls is not given here.

Assays:
[1] = target: T1, Toll-like receptor 4 (Homo sapiens, UniProt O00206); assay: Agonist activity at human TLR4 in human HEK-Blue hTLR4 cells assessed as NF-kappaB activation incubated for 48 hrs by SEAP reporter gene based Quanti-blue assay; assay type: cell-based
[2] = target: T2, Toll-like receptor 4 (Mus musculus, UniProt Q9QUK6); assay: Agonist activity at TLR4 in mouse RAW264.7 cells assessed as induction of MIP-1beta release incubated for 24 hrs by ELISA; assay type: cell-based
T2 sequence (Q9QUK6 whole entry): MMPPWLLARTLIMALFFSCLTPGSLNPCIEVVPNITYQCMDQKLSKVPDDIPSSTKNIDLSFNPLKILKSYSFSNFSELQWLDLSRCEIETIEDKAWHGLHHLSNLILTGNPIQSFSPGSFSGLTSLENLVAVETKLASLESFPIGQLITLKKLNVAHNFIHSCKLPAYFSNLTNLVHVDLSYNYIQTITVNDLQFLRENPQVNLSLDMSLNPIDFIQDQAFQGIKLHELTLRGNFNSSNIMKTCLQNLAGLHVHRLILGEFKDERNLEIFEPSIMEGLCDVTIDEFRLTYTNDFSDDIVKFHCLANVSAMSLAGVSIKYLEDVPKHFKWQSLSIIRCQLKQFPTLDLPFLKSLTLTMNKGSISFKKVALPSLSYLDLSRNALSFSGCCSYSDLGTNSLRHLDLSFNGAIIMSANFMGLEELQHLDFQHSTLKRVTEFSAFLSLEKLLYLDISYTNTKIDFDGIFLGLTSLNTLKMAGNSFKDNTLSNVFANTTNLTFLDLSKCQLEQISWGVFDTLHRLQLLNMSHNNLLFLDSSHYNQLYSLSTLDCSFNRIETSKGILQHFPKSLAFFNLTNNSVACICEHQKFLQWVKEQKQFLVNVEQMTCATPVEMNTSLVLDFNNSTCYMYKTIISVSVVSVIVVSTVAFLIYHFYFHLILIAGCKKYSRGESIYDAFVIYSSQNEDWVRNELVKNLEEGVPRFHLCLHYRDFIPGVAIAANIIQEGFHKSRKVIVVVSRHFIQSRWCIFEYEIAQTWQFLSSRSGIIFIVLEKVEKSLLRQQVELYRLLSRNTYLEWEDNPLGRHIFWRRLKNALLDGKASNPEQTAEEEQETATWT

[3] = target: T2, Toll-like receptor 4; assay: Agonist activity at mouse TLR4 in human HEK-Blue mTLR4 cells assessed as NF-kappaB activation incubated for 48 hrs by SEAP reporter gene based Quanti-blue assay; assay type: cell-based
[4] = target: T1, Toll-like receptor 4; assay: Agonist activity at TLR4 in human MONO-MAC-6 cells assessed as induction of MIP-1beta release incubated for 24 hrs by ELISA; assay type: cell-based
[5] = target: T1, Toll-like receptor 4; assay: Agonist activity at TLR4 in human PBMC cells assessed as induction of MIP-1beta release incubated for 20 hrs by ELISA; assay type: cell-based
[6] = target: T1, Toll-like receptor 4; assay: Agonist activity at TLR4 in human PBMC cells assessed as induction of TNFalpha release incubated for 20 hrs by ELISA; assay type: cell-based
[7] = target: T1, Toll-like receptor 4; assay: Agonist activity at TLR4 in human PBMC cells assessed as induction of IL-1beta release incubated for 20 hrs by ELISA; assay type: cell-based
[8] = target: T1, Toll-like receptor 4; assay: Agonist activity at TLR4 in human PBMC cells assessed as induction of RANTES release incubated for 20 hrs by ELISA; assay type: cell-based
[9] = Aqueous stability of the compound assessed as drug degradation at 2 to 8 degreeC and measured upto 12 months by RP-HPLC analysis; assay type: physicochemical; settings: buffer, 8760 h
[10] = Aqueous stability of the compound assessed as drug degradation at 2 to 8 degreeC and measured upto 12 months by LC-MS analysis; assay type: physicochemical; settings: buffer, 8760 h
[11] = Aqueous stability of the compound assessed as drug degradation at 40 degreeC and measured upto 12 months by LC-MS analysis; assay type: physicochemical; settings: buffer, 8760 h
[12] = organism: Mus musculus; assay: Immuno-adjuvant activity in H3N2-split A/Victoria/210/2009 influenza virus-immunized BALB/c mouse model assessed as increase in influenza specific serum IgG titer level at 0.001 to 0.1 ug,IM and measured after 14 days by ELISA; assay type: functional, organism-based; settings: dose 0.001-0.1 µg, time 14.0 day
[13] = organism: Mus musculus; assay: Immuno-adjuvant activity in H3N2-split A/Victoria/210/2009 influenza virus-immunized BALB/c mouse model assessed as increase in influenza specific serum IgG1 titer level at 0.001 to 0.1 ug,IM and measured after 14 days by ELISA; assay type: functional, organism-based; settings: dose 0.001-0.1 µg, time 14.0 day
[14] = tested on: Mus musculus; assay: Immuno-adjuvant activity in H3N2-split A/Victoria/210/2009 influenza virus-immunized BALB/c mouse model assessed as increase in influenza specific serum IgG titer level at 0.001 to 0.1 ug,IM administered on day 0 and 14 and measured after 28 days by ELISA; assay type: functional, organism-based; settings: dose 0.001-0.1 µg, time 28.0 day
[15] = tested on: Mus musculus; assay: Immuno-adjuvant activity in H3N2-split A/Victoria/210/2009 influenza virus-immunized BALB/c mouse model assessed as increase in influenza specific serum IgG1 titer level at 0.001 to 0.1 ug,IM administered on day 0 and 14 and measured after 28 days by ELISA; assay type: functional, organism-based; settings: dose 0.001-0.1 µg, time 28.0 day
[16] = tested on: Mus musculus; assay: Immuno-adjuvant activity in H3N2-split A/Victoria/210/2009 influenza virus-immunized BALB/c mouse model assessed as increase in influenza specific serum IgG2a titer level at 0.001 to 0.1 ug,IM administered on day 0 and 14 and measured after 28 days by ELISA; assay type: functional, organism-based; settings: dose 0.001-0.1 µg, time 28.0 day
[17] = Toxicity in H3N2-split A/Victoria/210/2009 influenza virus-immunized BALB/c mouse model assessed as abnormality at 0.001 to 0.1 ug,IM administered on day 0 and 14 and measured after 28 days; settings: in vivo, 672 h, dose 0.001-0.1 µg, time 28 day
[18] = Toxicity in H3N2-split A/Victoria/210/2009 influenza virus-immunized BALB/c mouse model assessed as reactogenicity at 0.001 to 0.1 ug,IM administered on day 0 and 14 and measured after 28 days; settings: in vivo, 672 h, dose 0.001-0.1 µg, time 28 day
[19] = tested on: PBMC; assay: Cytotoxicity against human PBMC cells assessed as reduction in cell viability upto 10 ug/ml incubated for 18 to 24 hrs by PrestoBlue reagent based assay; assay type: toxicity; settings: time 18-24 hrs, dose < 10 µg/ml
[20] = organism: Mus musculus; assay: Immuno-adjuvant activity in H3N2-split A/Victoria/210/2009 influenza virus-immunized BALB/c mouse model assessed as increase in influenza specific serum IgG2a titer level at 0.001 to 0.1 ug,IM and measured after 14 days by ELISA; assay type: functional, organism-based; settings: dose 0.001-0.1 µg, time 14.0 day
[21] = tested on: Mus musculus; assay: Immuno-adjuvant activity in H3N2-A/HK/68 influenza virus-immunized BALB/c mouse model assessed as increase in survival rate at 10 ug,INH administered 48hrs prior to influenza challenge and measured after 18 days; assay type: functional; settings: dose 10 µg, time 18 day
[22] = tested on: Mus musculus; assay: Immuno-adjuvant activity in H3N2-A/HK/68 influenza virus-immunized BALB/c mouse model assessed as increase in survival rate at 1 ug,INH administered 48hrs prior to influenza challenge and measured after 18 days; assay type: functional; settings: dose 1 µg, time 18 day
[23] = Toxicity in H3N2-A/HK/68 influenza virus-immunized BALB/c mouse model assessed as body weight change at 1 to 10 ug,INH administered 48hrs prior to influenza challenge and measured after 18 days; settings: in vivo, inhaled_or_intranasal, 432 h, dose 1-10 µg, time 18 day
[24] = Toxicity in H3N2-A/HK/68 influenza virus-immunized BALB/c mouse model assessed as disease index at 1 to 10 ug,INH administered 48hrs prior to influenza challenge and measured after 18 days; settings: in vivo, inhaled_or_intranasal, 432 h, dose 1-10 µg, time 18 day
[25] = Toxicity in H3N2-A/HK/68 influenza virus-immunized BALB/c mouse model assessed as change in body temperature at 1 to 10 ug,INH administered 48hrs prior to influenza challenge and measured after 18 days; settings: in vivo, inhaled_or_intranasal, 432 h, dose 1-10 µg, time 18 day

T1 sequence (O00206 whole entry): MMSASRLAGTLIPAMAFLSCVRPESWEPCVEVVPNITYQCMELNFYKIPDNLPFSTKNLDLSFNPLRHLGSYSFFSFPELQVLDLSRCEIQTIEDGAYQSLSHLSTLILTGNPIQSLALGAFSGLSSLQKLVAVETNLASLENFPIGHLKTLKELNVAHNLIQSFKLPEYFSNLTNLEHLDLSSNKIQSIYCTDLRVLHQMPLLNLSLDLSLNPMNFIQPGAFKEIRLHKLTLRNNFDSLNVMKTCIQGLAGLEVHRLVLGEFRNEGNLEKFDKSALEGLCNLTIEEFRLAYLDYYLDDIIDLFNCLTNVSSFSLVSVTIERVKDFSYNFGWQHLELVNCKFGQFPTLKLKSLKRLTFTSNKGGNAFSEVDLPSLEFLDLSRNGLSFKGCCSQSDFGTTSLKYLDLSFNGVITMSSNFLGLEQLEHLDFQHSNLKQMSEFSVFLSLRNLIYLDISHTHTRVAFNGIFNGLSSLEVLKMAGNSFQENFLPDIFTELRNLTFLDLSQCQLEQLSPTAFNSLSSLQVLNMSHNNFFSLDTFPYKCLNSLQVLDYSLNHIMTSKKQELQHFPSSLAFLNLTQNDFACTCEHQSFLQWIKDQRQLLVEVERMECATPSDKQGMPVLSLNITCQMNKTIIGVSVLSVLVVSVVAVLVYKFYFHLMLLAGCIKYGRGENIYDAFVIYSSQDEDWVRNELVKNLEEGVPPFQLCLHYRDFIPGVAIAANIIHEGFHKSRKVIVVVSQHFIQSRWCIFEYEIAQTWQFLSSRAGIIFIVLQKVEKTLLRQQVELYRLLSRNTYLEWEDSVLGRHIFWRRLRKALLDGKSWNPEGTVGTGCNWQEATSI

Row | SMILES | EC50 [1] [nM] | EC50 [2] [nM] | EC50 [3] [nM] | EC50 [4] [nM] | EC50 [5] [nM] | EC50 [6] [nM] | EC50 [7] [nM] | EC50 [8] [nM] | Stability [9] | Stability [10] | Stability [11] | Activity [12] | Activity [13] | Activity [14] | Activity [15] | Activity [16] | Activity [17] | Activity [18] | Activity [19] | also measured
1 | CCCCCCCCCCCCCC(=O)O[C@H](CCCCCCCCCCC)CC(=O)O[C@@H]1[C@@H](NC(=O)C[C@H](CCCCCCCCCCC)OC(=O)CCCCCCCCCCCCC)[C@H](OC[C@H]2O[C@H](O)[C@H](NC(=O)C[C@H](O)CCCCCCCCCCC)[C@@H](OC(=O)C[C@H](O)CCCCCCCCCCC)[C@@H]2O)O[C@H](CO)[C@H]1OP(=O)(O)O | 6.23 | 0.49 | 1.4 | 0.99 | 0.76 | 10.4 | 2.11 | 1.92 |  |  |  |  |  |  |  |  |  |  |  | 
2 | CCCCCCCCCCC[C@H](CC(=O)N[C@H]1[C@H](OC[C@H](NC(=O)C[C@@H](CCCCCCCCCCC)OCCCCCCCCCC)C(=O)O)O[C@H](CO)[C@@H](OS(=O)(=O)O)[C@H]1NC(=O)C[C@@H](CCCCCCCCCCC)OCCCCCCCCCC)OCCCCCCCCCC.CCN(CC)CC | 26.3 | 0.04 | 0.68 | 0.65 | 0.24 | 6.88 | 0.97 | 0.46 | Stable | Stable | Stable | Dose-Dependent Effect | Dose-Dependent Effect | Active | Active | Active | Non-Toxic | Non-Toxic |  | 
3 | CCCCCCCCCCC[C@H](CC(=O)N[C@H]1[C@H](OC[C@H](NC(=O)C[C@@H](CCCCCCCCCCC)OC(=O)CCCCCCCCC)C(=O)O)O[C@H](CO)[C@@H](OP(=O)(O)O)[C@@H]1OC(=O)C[C@@H](CCCCCCCCCCC)OC(=O)CCCCCCCCC)OC(=O)CCCCCCCCC |  |  |  |  |  |  |  |  |  |  |  |  |  |  |  |  |  |  | Non-Toxic | 
4 | CCCCCCCCCCCCCCCC(=O)O[C@H](CCCCCCCCCCC)CC(=O)N[C@@H]1[C@@H](O)[C@H](O)[C@@H](CO[C@@H]2O[C@H](CO)[C@@H](OP(=O)(O)O)[C@H](OC(=O)C[C@@H](CCCCCCCCCCC)OC(=O)CCCCCCCCCCCCC)[C@H]2NC(=O)C[C@@H](CCCCCCCCCCC)OC(=O)CCCCCCCCCCC)O[C@@H]1O | 246 | 3.73 | 6.54 | 6.37 | 23.7 | 200 | 42.4 | 31.5 |  |  |  |  |  |  |  |  |  |  |  | 
5 | CCCCCCCCCCC[C@H](CC(=O)N[C@H]1[C@H](OC[C@H](NC(=O)C[C@@H](CCCCCCCCCCC)OCCCCCCCCCC)C(=O)O)O[C@H](CO)[C@@H](OP(=O)(O)O)[C@H]1NC(=O)C[C@@H](CCCCCCCCCCC)OCCCCCCCCCC)OCCCCCCCCCC.CCN(CC)CC | 7.86 | 0.02 | 0.15 | 0.38 | 0.13 | 2.6 | 0.28 | 0.14 | Stable | Stable | Stable | Dose-Dependent Effect | Dose-Dependent Effect | Active | Active | Active | Non-Toxic | Non-Toxic | Non-Toxic | Activity [20]: Dose-Dependent Effect; Survival [21]: 80%; Survival [22]: 40%; Activity [23]: Non-Toxic; Activity [24]: Non-Toxic; Activity [25]: Non-Toxic
6 | CCCCCCCCCCC[C@H](CC(=O)NCCO[C@@H]1O[C@H](CO)[C@@H](OP(=O)(O)O)[C@@H](NC(=O)C[C@@H](CCCCCCCCCCC)OC(=O)CCCCCCCCC)[C@H]1NC(=O)C[C@@H](CCCCCCCCCCC)OC(=O)CCCCCCCCC)OC(=O)CCCCCCCCC.CCN(CC)CC | 91.9 | 0.26 | 0.37 | 1.65 | 1.61 | 28 | 8.77 | 3.68 | Stable | Stable | Stable |  |  |  |  |  |  |  |  | 
